The values below come from patent US20120003298A1, “METHODS FOR INDUCING AN IMMUNE RESPONSE” (priority 2010, published 2012).

The nature of series [1]: Solubility observations in the text. The following applies: methanol, ethanol, dichloromethane, ethyl acetate, acetonitrile, acetone, chloroform.
Series [2] concerns mouse macrophage cell line Raw264.7. Nature of the series: IL-6 and TNF-alpha secretion in Raw264.7 cells (Model 1), ELISA. The format is cell-based.
For the next series, the system named is MB49 cells. Briefly: Mouse bladder cancer model, intravesical treatment (Experiment 24). Type of series: in vivo. Conditions: Experiment 1; in Phosal 50, 50 microliters, 20 minutes; 2 h and 24 h. As for the experimental part: A set of experiments was conducted with SC12 in various solutions, in a mouse bladder cancer model.
7-9 week old C57BU6 mice were implanted with 1×10^6 MB49 cells after 0.1% poly L lysine treatment on day 0. […] On day 11, mice were sacrificed and organs were harvested.

Another series relates to HLA-DR+/CD20+ B cells. Briefly: FACS, B cell activation in whole blood. The format is cell-based, human. The following applies: 24 hours; 2 and 10 uM.
A short description of series [3]: Intrabladder application, serum cytokines (Luminex) and histology. Type of series: in vivo, mouse. Conditions: day 0, 2 hour time point; intravesical about 207 nmoles in 50 μl. As for the experimental part: Female C57BU6 mice were anesthetized with ketamine/xylazine. The 50 microliter formulated compounds were intravesically administered for twenty minutes at each treatment. The treatment schedule and doses are in Table 35 and 36, respectively. The levels of cytokines (IL-6, IL-12, and TNF-alpha) were determined by Luminex assay. Paraffin sections were prepared and H & E staining performed.

The subject of the next series is human PBMCs. Briefly: IL-6 secretion in human PBMCs, two batches of Compound A and SC12 (Example 4). Type of series: cell-based. Conditions: PBMCs, 10-1-0.1-0.01 micromolar.
Series [4] concerns Cutaneous Squamous Cell Carcinoma (SCC) cell lines SCL-I, SCL-II, SCC-12, SCC-13. Conditions: FIG. 11.
Protocol: SCC cells are grown under standard conditions (10% FBS).
Time and dose dependency of effects on total cell numbers have been investigated by real-time cell analysis, which is based on continuous monitoring of electric conductance in microtiter wells (E-plates, Roche), which corresponds to the cell numbers. […] For these assays 4 cell lines may be used to obtain a representative overview on the effects on SCC cells.
Series [5] deals with AY-27 rat bladder cancer cell-line. Nature of the series: Orthotopic rat bladder cancer model, intravesical instillation.
The subject of series [6] is myeloid CD11c+/CD123− DCs. Nature of the series: FACS, myeloid DC activation in whole blood. The following applies: 24 hours; 0.1 and 0.5 uM. The format is cell-based, human. As for the experimental part:
The FACS analysis for donor 1 and donor 2 was made on another day than donor 3. The compound concentrations were as follows:
B cell activation: 2 and 10 uM mDC/pDC: 0.1 and 0.5 uM
The FACS analysis was used to identify whether the test compounds could induce activation of B cells, and two different subsets of dendritic cells, namely the myeloid CD11c+/CD123− DCs and the plasmacytoid CD11c−/CD123+DCs. The following markers were studied to identify the activation status of the different subsets:
The FACS staining was performed according to the manufacturer's instructions. Lysis of red blood cells was performed before FACS staining in order to minimize auto-florescence. To include as many B cells and DCs in the study as possible the FACS analyses were performed on 500,000 cells in total for each staining. A P1 gate was set only to include relevant cells on FSC vs. SSC (see FIGS. 12-15). The results of the individual analysis were present as Mean Fluorescence Intensity (MFI) values, for certain activation marker in a given gate setting, represent the actual cell subset. The isotype background values have been used to set the gates so that a maximum at 2% of unspecific stained cells could be found in the positive gates.
The analysis of myeloid DCs was based on HLA-DR+/CD11c+/CD123-cells, thus all analyzed cells was included in the HLA-DR+(P3) gate and CD11c+/CD123− (Q4) gate (see gates in FIGS. 13-15).

The structures appear in SMILES notation. pEC50: −log10 of the molar value.

Protocol for HLA-DR+/CD20+ B cells: B-cells: HLA-DR/CD20/CD40
The FACS staining was performed according to the manufacturer's instructions. Lysis of red blood cells was performed before FACS staining in order to minimize auto-florescence. To include as many B cells and DCs in the study as possible the FACS analyses were performed on 500,000 cells in total for each staining. […] The results of the individual analysis were present as Mean Fluorescence Intensity (MFI) values, for certain activation marker in a given gate setting, represent the actual cell subset. The isotype background values have been used to set the gates so that a maximum at 2% of unspecific stained cells could be found in the positive gates.
The analysis of expression of the activation marker CD40 on B cells was made on double positive HLA-DR (MHC class II) (P4 gate) and CD20 cells (B cell marker) (P8 gate).
Protocol for human PBMCs: PBMCs were purified from two donors and plated into 96 well plates at 2×10^5 cells/well in RPMI media including human 2% heat inactivated AB serum, glutamine, Pen-strep and β-mercaptoethanol. The cells were treated with TLR7 agonists for 24 h in 4 doses. The conditioned media was removed for ELISA analyses for IL-6, and the EC50 value determined for each compound and each batch.
All compounds were tested in four concentrations (10-1-0.1-0.01 micromolar).
Concentrations of IL-6 were determined by ELISA from R&D Systems using the Microsoft Excel software. The results were analyzed in Graph Pad Prism in order to prepare dose-response curves, and for determination of EC50 values.

As for `COCCOc1nc(N)c2[nH]c(=O)n(Cc3ccc(C(=O)O)cc3)c2n1` [Compound 7, 4-((6-amino-2-(2-methoxyethoxy)-8-oxo-7H-purin-9(8H)-yl)methyl)benzoic acid], the “solubility in common solvents” value in [1] is on record as “not soluble in most of the common solvents”.

For `CC(C)Cn1cnc2c(N)nc3ccccc3c21` [Imiquimod, reference compound], the “potency as TLR7 agonist” value in [2] is “weakest induction of IL-6 and TNF-alpha”. The “serum IL-6 and TNF-alpha” value in the series with MB49 cells is “under the detection levels”. In the series with HLA-DR+/CD20+ B cells, the “CD40 expression on B cells (MFI, words)” value is reported as “increased expression in all three donors”. In addition, in series [3], the “serum IL-12” value is “elevated levels of IL-12”. Also, in the series on human PBMCs, the “IL-6 induction” value is “only active in inducing IL-6 at the highest concentration (10 uM)”. Besides, the “cell numbers, real-time cell analysis” value in [4] was “reduced cell numbers”. For the same molecule, in series [5] (intravesical, day 2 and 5), the “toxicity” value was “No signs of toxicity”. Moreover, in [5] (of 14 per group), the “Number of rat bladders Tumor free” value is given as 5 and the “Number of rat bladders with pT2 Tumor” value was found to be 9. Besides, the “CD80 expression in mDCs (MFI, words)” value in [6] was “weak expression of CD80 in donor 1 and 2”.

In the case of `COCCOc1nc(N)c2[nH]c(=O)n(Cc3ccc(C(=O)O)cc3)c2n1` [Free pharmacophore, reference compound], the pEC50 in series [2] (Raw 264.7, 24 hours, 7 doses, read-out: EC 50 TNF-alpha) was 6.15.
